In patent US20110123530A1, “COMPOSITIONS AND METHODS FOR TREATING AND DIAGNOSING ASTHMA” (priority 2008, published 2011):

How the values were obtained:
[1] = system: healthy and asthmatic subjects; test: Methacholine challenge testing (PC20, airway hyper-responsiveness); type: in vivo, human; conditions: median
Description: (§1) (A) Volume of air exhaled in the first second of a forced expiration (FEV1), a measure of airway obstruction. (B) Improvement in FEV1 after 4 puffs (360 μg) of albuterol (bronchodilator reversibility testing). (C) Provocative concentration of methacholine required to induce a 20% decline in FEV1 (PC20), a measure of airway hyper-responsiveness.
Healthy controls (N=27) had no history of lung disease and lacked airway hyper-responsiveness (PC20 methacholine >16 mg/mL). Certain studies included current smokers without asthma (N=16). Exclusion criteria for all subjects included upper respiratory tract infection in the previous 4 weeks, asthma exacerbation within 6 weeks and current use of salmeterol, astemizole, nedocromil sodium, sodium cromoglycate, methlyxanthines, montelukast or zafirlukast. Subjects underwent baseline evaluation by study physicians (including spirometry and methacholine challenge testing as described previously). Subjects also underwent allergen skin prick testing (ASPT) with a panel of 12 aeroallergens, a positive control and a negative control (Table 6).
The minimal concentration of methacholine in mg/ml required to induce a decrease in FEV1 of 20% (PC20, measured at a screening visit one week prior to bronchoscopy) is a measure of bronchial hyperresponsiveness. This is a measure of bronchial hyper-reactivity (BHR).
(§2) The asthmatic subjects were further analyzed with respect to additional demographic characteristics and clinical features as those described in Example 7. […] This difference in AHR was apparent despite inclusion criteria that required all asthmatics to have significant AHR (all asthmatics <8 mg/ml, all healthy controls >20 mg/ml).

[2] = system: healthy and asthmatic subjects; test: Bronchodilator reversibility testing: improvement in FEV1 after albuterol; type: in vivo, human; conditions: 4 puffs (360 μg) of albuterol, mean ± SD
Description: as §1
For the purposes of identifying subsets of patients with asthma who differ with respect to the molecular mechanism underlying their airway inflammation and the distinct inflammatory, pathological and clinical phenotypes characteristic of these subsets, we first conducted new analyses on our previously generated epithelial cell microarray data, and we then supplemented these new analyses with review of additional and detailed clinical characterization data (including data on bronchodilator reversibility and allergen skin test reactivity) from these same subjects and newly generated data, including: (i) gene expression profiles in homogenates of bronchial biopsies and alveolar macrophages; (ii) quantitative measures of subepithelial collagen and airway epithelial mucin in bronchial biopsies; (iii) total and differential cell counts in BAL.
as §2

SMILES | Methacholine PC20 (provocative concentration required to cause a 20% decline in FEV1) ([1]; Healthy Control) [mg/mL] | Methacholine PC20 (provocative concentration required to cause a 20% decline in FEV1) ([1]; asthma, IL13 Signature Low) [mg/mL] | Methacholine PC20 (provocative concentration required to cause a 20% decline in FEV1) ([1]; asthma, IL-13 Signature High) [mg/mL] | ΔFEV1 with albuterol (% of baseline) ([2]; Healthy Control) | ΔFEV1 with albuterol (% of baseline) ([2]; asthma, IL13 Signature Low) | ΔFEV1 with albuterol (% of baseline) ([2]; asthma, IL-13 Signature High)
CC(=O)OC(C)C[N+](C)(C)C (stereo not drawn) [Methacholine, methacholine] | 64 | 0.93 | 0.27 | – | – | –
CC(C)(C)NCC(O)c1ccc(O)c(CO)c1 (stereo not drawn) [albuterol] | – | – | – | 2.7 ± 3.4% of baseline | 9.7 ± 7.4% of baseline | 12.5 ± 9.8 % of baseline
